Reference: paper PMC12155096 (International Journal of Molecular Sciences, 2025)
Where a name gives a salt, the structure may show the parent alone. Read-outs that look alike come from different tables or passages of the source.

Columns and labels:
human CYP2C9 [1] = target: T1, human CYP2C9 (Homo sapiens, UniProt P11712)
[2] = target: Photinus pyralis (firefly) luciferase (Photinus pyralis, UniProt P08659); test: biochemical; assay type: biochemical
human CYP1A2 [3] = target: T2, human CYP1A2 (Homo sapiens, UniProt P05177)
T2 sequence (P05177 1-516): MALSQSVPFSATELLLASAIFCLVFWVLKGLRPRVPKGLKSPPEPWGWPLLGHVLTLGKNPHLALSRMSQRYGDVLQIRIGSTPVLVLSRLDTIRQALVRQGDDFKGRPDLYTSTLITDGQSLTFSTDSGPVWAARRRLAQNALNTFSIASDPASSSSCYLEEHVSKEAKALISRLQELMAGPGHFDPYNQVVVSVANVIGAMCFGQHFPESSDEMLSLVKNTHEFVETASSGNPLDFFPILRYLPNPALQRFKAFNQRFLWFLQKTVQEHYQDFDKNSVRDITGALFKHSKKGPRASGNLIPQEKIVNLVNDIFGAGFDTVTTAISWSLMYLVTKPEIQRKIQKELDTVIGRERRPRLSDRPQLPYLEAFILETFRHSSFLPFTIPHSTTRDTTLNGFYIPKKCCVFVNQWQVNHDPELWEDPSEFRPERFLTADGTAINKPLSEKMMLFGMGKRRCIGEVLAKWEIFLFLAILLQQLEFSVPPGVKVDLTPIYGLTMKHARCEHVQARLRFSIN

human CYP2C19 [4] = target: T3, human CYP2C19 (Homo sapiens, UniProt P33261)
T3 sequence (P33261 whole entry): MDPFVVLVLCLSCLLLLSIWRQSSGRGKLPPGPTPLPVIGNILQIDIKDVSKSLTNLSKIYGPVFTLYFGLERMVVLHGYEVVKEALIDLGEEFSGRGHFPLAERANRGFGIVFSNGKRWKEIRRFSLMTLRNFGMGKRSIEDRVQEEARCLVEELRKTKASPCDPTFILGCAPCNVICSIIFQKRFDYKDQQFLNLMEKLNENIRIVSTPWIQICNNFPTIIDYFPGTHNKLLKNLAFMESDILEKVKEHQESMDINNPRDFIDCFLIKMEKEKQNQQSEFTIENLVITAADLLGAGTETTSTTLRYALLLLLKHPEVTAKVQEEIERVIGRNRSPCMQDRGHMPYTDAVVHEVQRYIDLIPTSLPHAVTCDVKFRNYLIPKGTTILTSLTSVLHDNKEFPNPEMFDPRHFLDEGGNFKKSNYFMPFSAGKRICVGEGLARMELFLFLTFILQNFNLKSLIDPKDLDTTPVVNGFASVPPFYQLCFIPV

human CYP2C9 [5] = target: T1, human CYP2C9; test: biochemical
human CYP2C19 [6] = target: T3, human CYP2C19; test: biochemical
human CYP2D6 [7] = target: T4, human CYP2D6 (Homo sapiens, UniProt P10635); conditions: human
T4 sequence (P10635 whole entry): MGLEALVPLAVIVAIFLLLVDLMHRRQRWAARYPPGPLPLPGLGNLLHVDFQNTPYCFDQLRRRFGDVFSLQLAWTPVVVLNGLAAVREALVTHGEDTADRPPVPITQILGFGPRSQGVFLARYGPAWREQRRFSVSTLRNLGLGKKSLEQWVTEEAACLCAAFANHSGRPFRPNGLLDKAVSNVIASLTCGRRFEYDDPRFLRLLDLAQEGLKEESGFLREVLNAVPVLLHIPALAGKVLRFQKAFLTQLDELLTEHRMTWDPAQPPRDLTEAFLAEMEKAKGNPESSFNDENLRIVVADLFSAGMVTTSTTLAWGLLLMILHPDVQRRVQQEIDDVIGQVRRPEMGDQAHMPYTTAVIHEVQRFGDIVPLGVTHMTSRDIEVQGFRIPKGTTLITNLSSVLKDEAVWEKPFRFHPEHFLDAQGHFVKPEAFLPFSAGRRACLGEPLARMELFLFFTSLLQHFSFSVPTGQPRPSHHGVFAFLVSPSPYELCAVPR

human CYP2D6 [8] = target: T4, human CYP2D6; test: biochemical
human CYP1A2 [9] = target: T2, human CYP1A2; test: biochemical
CYP3A4 = CYP3A4 (Homo sapiens, UniProt P08684)
CYP3A4, sequence (P08684 whole entry): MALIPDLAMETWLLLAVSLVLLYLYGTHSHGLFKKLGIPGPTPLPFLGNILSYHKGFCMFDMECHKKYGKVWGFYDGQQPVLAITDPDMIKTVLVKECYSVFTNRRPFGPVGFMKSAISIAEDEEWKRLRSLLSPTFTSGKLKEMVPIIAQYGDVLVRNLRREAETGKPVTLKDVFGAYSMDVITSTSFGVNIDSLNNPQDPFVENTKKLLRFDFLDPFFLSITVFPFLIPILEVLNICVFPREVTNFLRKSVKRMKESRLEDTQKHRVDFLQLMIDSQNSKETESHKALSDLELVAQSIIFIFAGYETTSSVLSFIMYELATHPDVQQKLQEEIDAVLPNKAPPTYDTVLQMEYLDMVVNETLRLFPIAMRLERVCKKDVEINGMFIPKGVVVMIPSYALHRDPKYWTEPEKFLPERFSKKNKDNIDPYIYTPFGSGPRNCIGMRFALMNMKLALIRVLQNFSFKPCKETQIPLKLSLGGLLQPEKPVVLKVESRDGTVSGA

[10] = CYP2C9 IC50 (half-maximal inhibitory concentration)
[11] = CYP2C19 IC50 (half-maximal inhibitory concentration)
[12] = CYP2D6 IC50 (half-maximal inhibitory concentration)
[13] = CYP1A2 IC50 (half-maximal inhibitory concentration)

T1 sequence (P11712 whole entry): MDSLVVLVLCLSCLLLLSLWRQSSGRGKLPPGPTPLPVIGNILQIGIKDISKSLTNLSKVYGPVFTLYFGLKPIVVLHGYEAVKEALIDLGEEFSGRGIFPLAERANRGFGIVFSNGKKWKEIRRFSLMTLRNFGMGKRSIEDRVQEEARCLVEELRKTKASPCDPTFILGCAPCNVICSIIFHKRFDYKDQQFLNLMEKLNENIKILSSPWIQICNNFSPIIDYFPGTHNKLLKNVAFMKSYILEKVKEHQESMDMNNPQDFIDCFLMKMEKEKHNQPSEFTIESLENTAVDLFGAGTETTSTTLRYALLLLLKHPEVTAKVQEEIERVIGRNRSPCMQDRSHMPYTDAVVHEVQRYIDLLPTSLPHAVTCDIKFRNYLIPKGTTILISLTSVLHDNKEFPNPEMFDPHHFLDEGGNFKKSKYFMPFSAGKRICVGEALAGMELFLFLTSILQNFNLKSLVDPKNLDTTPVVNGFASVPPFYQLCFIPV
Photinus pyralis (firefly) luciferase, sequence (P08659 whole entry): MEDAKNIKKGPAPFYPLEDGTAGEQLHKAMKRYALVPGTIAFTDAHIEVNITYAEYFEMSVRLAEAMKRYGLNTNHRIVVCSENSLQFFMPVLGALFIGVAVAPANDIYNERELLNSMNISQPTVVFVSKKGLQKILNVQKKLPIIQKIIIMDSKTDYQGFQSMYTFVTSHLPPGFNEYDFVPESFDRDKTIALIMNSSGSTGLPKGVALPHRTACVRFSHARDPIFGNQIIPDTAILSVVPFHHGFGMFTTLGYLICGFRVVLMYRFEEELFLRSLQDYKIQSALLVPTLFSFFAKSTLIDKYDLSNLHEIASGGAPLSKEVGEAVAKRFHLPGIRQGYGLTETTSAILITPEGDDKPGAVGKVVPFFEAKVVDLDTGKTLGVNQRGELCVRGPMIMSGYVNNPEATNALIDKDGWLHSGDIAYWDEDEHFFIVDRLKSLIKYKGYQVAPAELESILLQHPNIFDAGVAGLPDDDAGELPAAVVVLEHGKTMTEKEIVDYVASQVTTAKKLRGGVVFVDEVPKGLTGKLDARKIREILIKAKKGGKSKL

| SMILES | IC50 [2] [µM] | Luciferase IC50 [2] | IC50 (human CYP2C9 [5]) [µM] | IC50 (human CYP2C19 [6]) [µM] | IC50 (human CYP2D6 [8]) [µM] | IC50 (human CYP1A2 [9]) [µM] | IC50 (human CYP2D6 [8]; CYP2D6 IC50) [µM] | IC50 (human CYP2C19 [6]; CYP2C19 IC50) [µM] | IC50 (human CYP1A2 [9]; CYP1A2 IC50) [µM] | further results |
| --- | --- | --- | --- | --- | --- | --- | --- | --- | --- | --- |
| O=[N+]([O-])c1c2ccccc2cc2ccccc12 [9-Nitroanthracene] | 22.6 | – | – | – | – | – | – | – | – | CYP2C9 Efficacy (in parenthesis) (human CYP2C9 [1]; human): 13.51 ± 1.21 (-86 ± 11) %; CYP1A2 Efficacy (in parenthesis) (human CYP1A2 [3]; human): 0.27 ± 0.04 (-96 ± 5) %; CYP2C19 Efficacy (in parenthesis) (human CYP2C19 [4]; human): 19.86 ± 2.28 (-116 ± 4) %; IC50 (human CYP2C9 [5]; [10]): 13.5 µM; IC50 (human CYP2C19 [6]; [11]): 19.9 µM; CYP2D6 Efficacy (in parenthesis) (human CYP2D6 [7]): 34.03 ± 2.33 (-39 ± 13) %; IC50 (human CYP2D6 [8]; [12]): 34 µM; IC50 (human CYP1A2 [9]; [13]): 0.27 µM |
| Nc1ccc(C(=O)N2CC3CC(CN(Cc4ccccc4)C3)C2)cc1 [Ambasilide] | – | Inactive | 22.7 | 30 | 20.1 | 30.9 | – | – | – | – |
| CCc1cccc(N(C)C(N)=Nc2cccc3ccccc23)c1 [Aptiganel hydrochloride] | – | Inactive | – | – | – | – | 0.14 | – | – | CYP1A2 IC50 (human CYP1A2 [3]): Inactive; CYP3A4 IC50 (CYP3A4): Inactive |
| CCC1(c2cnc[nH]2)Cc2ccccc2C1 [Atipamezole] | – | Inactive | 1.21 ± 0.3 | 1.42 ± 0.4 | 0.87 ± 0.1 | 11 ± 2.84 | – | – | – | – |
| Nc1ccc2c(c1)CN1C(=O)c3ccccc3C1=N2 [Daniquidone] | 0.36 | – | – | – | – | – | – | – | – | IC50 (human CYP2C9 [5]; [10]): 5.05 µM; IC50 (human CYP2C19 [6]; [11]): 2.8 µM; IC50 (human CYP2D6 [8]; [12]): 4.39 µM; IC50 (human CYP1A2 [9]; [13]): 0.67 µM |
| CN(C)[C@@H](CCOc1cccc2ccccc12)c1ccccc1 [Dapoxetine] | – | Inactive | 16.8 ± 2.32 | 1.21 ± 0.3 | 0.98 ± 0.11 | 5.87 ± 1.73 | – | – | – | – |
| Cc1cccc(Cc2c[nH]cn2)c1C [Detomidine hydrochloride] | – | Inactive | – | – | – | – | 2.37 | 1.96 | 1.15 | IC50 (human CYP2C9 [5]; CYP2C9 IC50): 0.41 µM |
| C1CCC(NC2CCCCC2)CC1 [Dicyclohexylamine] | – | Inactive | – | – | 0.28 | – | – | – | – | CYP2C9 IC50 (human CYP2C9 [1]): Inactive; CYP1A2 IC50 (human CYP1A2 [3]): Inactive; CYP2C19 IC50 (human CYP2C19 [4]): Inactive; CYP3A4 IC50 (CYP3A4): Inactive |
| [O-][n+]1ccccc1SSc1cccc[n+]1[O-] [Dipyrithione] | 0.45 | – | – | – | – | – | 1.66 | 0.79 | 3.2 | AC50 (human CYP2C9 [5]; CYP2C9 AC50 (half-maximal activity concentration)): 1.72 µM; IC50 (human CYP2C9 [5]; CYP2C9 IC50): 1.72 µM; AC50 (human CYP2C19 [6]; CYP2C19 AC50 (half-maximal activity concentration)): 0.79 µM; AC50 (human CYP2D6 [8]; CYP2D6 AC50 (half-maximal activity concentration)): 1.66 µM; AC50 (human CYP1A2 [9]; CYP1A2 AC50 (half-maximal activity concentration)): 3.2 µM |
| CC1=C(C)C(=O)C(CCCCC#CCCCC#CCO)=C(C)C1=O [Docebenone] | – | Inactive | – | – | – | – | 25.8 | 11.4 | 3.27 | IC50 (human CYP2C9 [5]; CYP2C9 IC50): 5.22 µM |
| CCN(CC)CCOC(=O)C(c1ccccc1)C1CCCCC1 (stereo not drawn) [Drofenine hydrochloride] | – | Inactive | – | – | – | – | 1.19 | 18.8 | 5.85 | IC50 (human CYP2C9 [5]; CYP2C9 IC50): 26 µM |
| CN1C[C@H](C(=O)N[C@]2(C)O[C@@]3(O)[C@@H]4CCCN4C(=O)[C@H](Cc4ccccc4)N3C2=O)C=C2c3cccc4[nH]cc(c34)C[C@H]21 [Ergotamine D-tartrate] | 42.1 | – | – | – | – | – | – | – | – | IC50 (human CYP2C9 [5]; [10]): 16.5 µM; IC50 (human CYP2C19 [6]; [11]): 37.4 µM; IC50 (human CYP2D6 [8]; [12]): 31.3 µM; IC50 (human CYP1A2 [9]; [13]): 22.6 µM |
| CC[n+]1c(-c2ccccc2)c2cc(N)ccc2c2ccc(N)cc21 [Ethidium bromide] | – | Inactive | – | – | – | – | 0.93 | 13.1 | 9.62 | IC50 (human CYP2C9 [5]; CYP2C9 IC50): 47.7 µM |
| CCCCCCCCCCCCCCCC[N+](C)(C)CC [Ethylhexadecyldimethylammonium bromide] | – | Inactive | 83.1 ± 5.63 | 89.6 | 0.61 ± 0.04 | 74.4 ± 9.49 | – | – | – | – |
| CN(C)c1ccc(N=NS(=O)(=O)O)cc1 [Fenaminosulf] | 44.1 | – | 7.38 | 1.36 | 12.2 | 5.75 | – | – | – | – |
| COP(=S)(OC)Oc1ccc(SC)c(C)c1 [Fenthion] | 44.8 | – | 6.1 | – | 37.2 | – | – | 0.91 | 2.53 | – |
| O=c1cc(-c2ccccc2)oc2ccccc12 [Flavone] | 21.6 | – | 14.6 | 23.2 ± 7.47 | 62.5 ± 38.1 | 0.26 | – | – | – | – |
